Key:
[1] = target: T1, HIV protease (Human immunodeficiency virus type 1 group M subtype B, UniProt P04585); assay: Inhibition of Microbial Expressed HIV Protease (protease expressed in Escherichia coli, peptide substrate, HPLC of products); type: biochemical; conditions: 50 mM Na acetate, pH 5.5, 30° C., 1 hour
T1 construct: made in house; host or cells: Escherichia coli
Protocol: Assay for Inhibition of Microbial Expressed HIV Protease
Inhibition studies of the reaction of the protease expressed in Eschericia coli with a peptide substrate [Val-Ser-Gln-Asn-(betanaphyl)Ala-Pro-Ile-Val, 0.5 mg/mL at the time the reaction is initiated] were in 50 mM Na acetate, pH 5.5, at 30° C. for 1 hour. Various concentrations of inhibitor in […] DMSO were added to […] of the peptide solution in water. The reaction is initiated by the addition of […] of 0.33 nM protease (0.11 ng) in a solution of 0.133M Na acetate pH 5.5 and 0.1% bovine serum albumin. The reaction was quenched with […] of 5% phosphoric acid. Products of the reaction were separated by HPLC (VYDAC wide pore 5 cm C-18 reverse phase, acetonitrile gradient, 0.1% phosphoric acid). The extent of inhibition of the reaction was determined from the peak heights of the products.

[2] = system: HIV-1; assay: Cell spread assay: inhibition of the spread of HIV in MT-4 T-lymphoid cell culture; type: cell-based; conditions: Human immunodeficiency virus 1, 72 h; MT-4 T-lymphoid cells, HIV-1 wild-type, 3 days with inhibitor, p24 accumulation; read-out: CIC95 (inhibitor concentration which reduced the spread of infection by at least 95%)
Protocol: Inhibition of the spread of HIV in cell culture was measured according to Nunberg, J. H. et al., J. Virol. 65, 4887 (1991). In this assay, MT-4 T-lymphoid cells were infected with HIV-1 (wild-type, unless otherwise indicated) by using a predetermined inoculum, and cultures were incubated for 24 h. At this time, ≤1% of the cells were positive by indirect immunofluorescence. Cells were then extensively washed and distributed into 96-well culture dishes. Serial twofold dilutions of inhibitor were added to the wells, and cultures were continued for 3 additional days. At 4 days postinfection, 100% of the cells in control cultures were infected. HIV-1 p24 accumulation was directly correlated with virus spread. The cell culture inhibitory concentration was defined as the inhibitor concentration in nanomoles/liter which reduced the spread of infection by at least 95%, or CIC95. The CIC95 for compound A is 25 nM.
INHIBITION OF VIRUS SPREAD
A. Preparation of HIV-infected MT-4 cell Suspension […]
The concentration of HIV p24 antigen is measured by an enzyme immunoassay, described as follows. Aliquots of p24 antigen to be measured are added to microwells coated with a monoclonal antibody specific for HIV core antigen. […]

Work on `COc1cc(CN2CCN(C[C@@H](O)[C@H](Cc3ccccc3)NC(=O)O[C@@H]3CCS(=O)(=O)[C@@H]3C(C)C)[C@H](C(=O)NC(C)(C)C)C2)cc2c1OCO2` [Compound A, N-tert-butyl-1-[2'(R)-hydroxy-4'-phenyl-3'(S)-[3"(R)-[1'",1'"-dioxo-2'"(R)-methylethyl]tetrahydrothienyloxycarbonylamino]butyl]-4-[(3'-methoxy-4',5'-methylenedioxyphenyl)methyl]piperazine-2(S)-carboxamide] yielded an IC50 [1] of about 1.2 nM and an IC95 [2] of 25 nM.

From US5650412A, “HIV protease inhibitors useful for the treatment of AIDS” (Merck & Co., Inc., priority 1995, dated 1997)
